Values quoted from earlier work, collected in patent publication US7780990B2, “Combination therapeutic compositions and method of use” (priority 2005, dated 2010).

Conditions: intravenous infusion 30 g over 30 min, patients with type II diabetes

For `C[N+](C)(C)CC(=O)O` [betaine, glycine betaine], the blood pressure is listed as “reduces blood pressure” and the haemodynamic functions is listed as “improves haemodynamic functions”.
